{"source": "patent US20210113540A1", "about": "“TREATMENT AGENT AND PHARMACEUTICAL COMPOSITION FOR GLIOMA” (NATIONAL UNIVERSITY CORPORATION HOKKAIDO UNIVERSITY, priority 2018, published 2021)", "key": {"recombinant human DHODH": {"molecular_target": "T1, recombinant human DHODH (Homo sapiens, UniProt Q02127)", "T1 construct": "DHODH, 31-395aa, Human, His tag, E. coli, ATGP1615; His tag; purchased ATGen ATGP1615; host or cells: E. coli", "T1 sequence (Q02127 31-395)": "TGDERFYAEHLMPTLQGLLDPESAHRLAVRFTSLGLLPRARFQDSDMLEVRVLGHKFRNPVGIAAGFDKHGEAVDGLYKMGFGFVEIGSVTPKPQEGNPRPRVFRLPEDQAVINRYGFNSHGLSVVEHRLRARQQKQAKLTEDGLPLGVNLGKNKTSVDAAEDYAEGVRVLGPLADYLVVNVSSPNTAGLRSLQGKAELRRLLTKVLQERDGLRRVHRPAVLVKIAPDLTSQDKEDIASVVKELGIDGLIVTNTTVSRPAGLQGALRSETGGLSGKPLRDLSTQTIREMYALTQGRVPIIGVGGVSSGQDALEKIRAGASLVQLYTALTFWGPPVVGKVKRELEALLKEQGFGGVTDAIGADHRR", "assay": "DHODH enzyme assay (DCIP quenching)", "format": "biochemical", "conditions": "pH 8.0, DCIP absorbance 600 nm, 50 minutes; read-out: DHODH enzyme inhibition IC50", "method": "For DHODH enzyme assay, “Benjamin Bader, Wolfgang Knecht, Markus Fries, and Monika Löffler. Expression, Purification, and Characterization of Histidine-Tagged Rat and Human Flavoenzyme Dihydroorotate Dehydrogenase. Protein Expression and Purification, 1998, 13, 414-422” was referred to.\nDHODH activity was evaluated using an enzyme assay system that couples with an assay in a blue-coloring dye 2,6-dichlorophenol indophenol (DCIP, MP BIOMEDICALS, MP150118) quenching assay. Purified recombinant human DHODH (DHODH, 31-395aa, Human, His tag, E. coli, ATGP1615) was purchased from ATGen. […] Enzyme activity was assessed by measuring the decrease in DCIP absorbance (600 nm) for 50 minutes using an Envision plate-reading spectrophotometer (PerkinElmer Co., Ltd.). […]\nEnzyme reaction inhibition rate (%)=(Amount of luminescence from wells supplemented with test compound)/(Amount of luminescence from wells supplemented with DMSO)×100"}, "SOX2 in GICs (E6)": {"test_system": "SOX2 in GICs (E6)", "assay": "SOX2 immunostaining, SOX2/DAPI positive rate in GICs (E6)", "format": "cell-based, human", "method": "The extranuclear elimination of compound 8-dependent SOX2 is dependent on the extranuclear transport factor, Exportin (also known as CRM1). The cells were cultured for one day in the presence of Compound 8 (10 μM) and a CRM1-specific inhibitor leptomycin B (LMB, 150 nM), and GICs were immunostained with the SOX2 antibody. As a result, the SOX2/DAPI positive rate in GICs (E6) was as follows: Control: 95±2%, supplemented with Compound 8: 7±3%, supplemented with Compound 8+LMB: 87±9%; the SOX2/DAPI positive rate in GICs (E16) was as follows: Control: 72±11%, supplemented with compound 8: 0.5±1%, supplemented with Compound 8+LMB: 81±10%. The addition of LMB suppressed Compound 8-dependent extranuclear elimination of SOX2.\nWhen UDP-GlcNAc was added after the chemical was added to GIC, reduced SOX2 expression in GICs and the cytotoxic activity of Compound 8 on GICs were neutralized (FIGS. 3 and 4). SOX2 K75A in which lysine 75 involved in the binding of CRM1 and SOX2 was substituted with alanine and SOX2 S248A in which the 0-GlcNAcylation target serine 248 was substituted with alanine were prepared, thereby establishing GICs that constitutively express these SOX2 mutants and wild-type SOX2 (SOX2 wt). After treatment with Compound 8, the localization of SOX2 was examined by immunostaining using an anti-FLAG antibody, and the viability of GICs expressing these mutants was examined by MTT assay (FIG. 5). In the presence of Compound 8, SOX2 K75A was present in the nucleus and partially neutralized the cytotoxic activity of Compound 8. SOX2 S248A was not retained in the nucleus by treatment with Compound 8, and no inhibitory effect on cytotoxic activity was observed. […] The SOX2/DAPI positive rate was as follows: GIC (E6): Control: 0%, SOX2 wt: 36±5%, SOX2 K75A: 63±5%, SOX2 S248A: 18±2%; GIC (E16): Control: 0%, SOX2 wt: 22±4%, SOX2 K75A: 58±6%, SOX2 S248A: 15±3%. Error bar: ±SD. Statistical processing is t-test. *P<0.05, **P<0.01, ***P<0.001. GIC was cultured for 2 days with Compound 8 (10 μmol/L) alone or together with UDP-GlcNAc (1 mmol/L), and immunostaining was performed for SOX2 and NESTIN. As a result, the addition of UDP-GlcNAc suppressed Compound 8-dependent extranuclear elimination of SOX2.\nOSMI-1, which is an O-GlcNAc transferase (OGT)-specific inhibitor, suppresses GIC growth and SOX2 expression. (A) GICs were cultured for 3 days in the presence of various concentrations of OSMI-1, and cell growth was examined using MTT assay (FIG. 6). (B) The results of immunostaining for SOX2 and NESTIN using GICs cultured for 2 days in the presence of 20 μmol/L OSMI-1 and calculating the SOX2 positive rate (SOX2/DAPI) are shown below."}, "[1]": {"test_system": "GIC strains (E6 cell, E16 cell)", "assay": "Immunostaining of differentiated and undifferentiated markers in GIC strains", "format": "cell-based, human", "conditions": "Compound 8 10 μM, E6 and E16 cells, FIG. 1"}, "E6 cells": {"test_system": "E6 cells", "assay": "Quantitative determination of metabolites by LC-MS/MS in E6 cells", "format": "cell-based, human", "set-up": "dose or concentration left out as unconfirmed", "conditions": "24 hours, compared to control DMSO-treated group", "method": "(§1) Compound 8 was added to GICs (E6, E16) at […] and treated for 24 hours. Cells were washed with a 5% mannitol solution, 70% ice-cold methanol was added, and metabolites were extracted. […] In addition, the amount of orotic acid was decreased in E16 cells."}, "E16 cells": {"test_system": "E16 cells", "assay": "Quantitative determination of metabolites by LC-MS/MS in E16 cells", "format": "cell-based, human", "set-up": "dose or concentration left out as unconfirmed", "conditions": "24 hours", "method": "as §1"}, "[2]": {"conditions": "after treatment with Compound 8, anti-FLAG immunostaining"}}}
{"smiles": "O=C(O)c1cc(C2CC2)cnc1Nc1ccc2c(ccn2-c2ccccc2)c1", "note": "[Compound 8, 5-cyclopropyl-2-((1-phenyl-1H-indole-5-yl)amino)nicotinic acid]", "values": [{"measurement": "IC50", "setting": "recombinant human DHODH", "result": 8.96, "unit": "nM"}, {"measurement": "SOX2/DAPI positive rate in GICs (E6)", "setting": "SOX2 in GICs (E6); Compound 8 10 μM, LMB 150 nM where added, cultured one day, control 95±2%", "result": "7±3", "unit": "%"}, {"measurement": "SOX2/DAPI positive rate, GIC (E6) expressing SOX2 K75A", "setting": "SOX2 in GICs (E6); [2]", "result": "63±5", "unit": "%"}, {"measurement": "SOX2/DAPI positive rate, GIC (E6) expressing SOX2 S248A", "setting": "SOX2 in GICs (E6); [2]", "result": "18±2", "unit": "%"}, {"measurement": "SOX2/DAPI positive rate, GIC (E6) expressing SOX2 wt", "setting": "SOX2 in GICs (E6); [2]", "result": "36±5", "unit": "%"}, {"measurement": "expression of differentiation markers (βIII tubulin, GFAP, GC)", "setting": "[1]", "result": "increased"}, {"measurement": "positive rate of neural stem cell markers SOX2 and NESTIN", "setting": "[1]", "result": "remarkable decrease"}, {"measurement": "increase of the amount of DHO in E6 cells", "setting": "E6 cells", "result": 596, "unit": "fold"}, {"measurement": "amount of orotic acid in E16 cells", "setting": "E16 cells", "result": "decreased"}, {"measurement": "increase of the amount of DHO in E16 cells", "setting": "E16 cells; compared to control DMSO-treated group", "result": 125, "unit": "fold"}]}
